Source: PubChem BioAssay AID1963982 (Molecular Pharmacology Branch, DTP, NCI, 2024)

System: 313798-341-R-J2-PDC spheroids, viability
Assay: Anticancer human tumor 313798-341-R-J2-PDC patient-derived cervical squamous cell carcinoma cell line growth inhibition [PI3K]
Conditions: spheroids with HUVEC and MSC; for viability, T/C: stronger effect = lower value
Outline: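 Tumor cells were combined with HUVEC and MSCs into spheroids, then dosed with PI3K-inhibitor combinations over half-log ranges capped near clinical Cmax or 10 microM.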

[1] = curve of first compound, second compound 0.0316 µM
[2] = curve of first compound, second compound 0.1 µM
[3] = curve of first compound, second compound 0.316 µM
[4] = curve of first compound, second compound 1 µM
[5] = curve of first compound, second compound 3.16 µM
[6] = curve of first compound, second compound 10 µM
[7] = second compound 0.0316 µM, first compound 0.0316 µM
[8] = second compound 0.0316 µM, first compound 0.1 µM
[9] = second compound 0.0316 µM, first compound 0.316 µM
[10] = second compound 0.0316 µM, first compound 1 µM
[11] = second compound 0.0316 µM, first compound 3.16 µM
[12] = second compound 0.0316 µM, first compound 10 µM
[13] = second compound 0.1 µM, first compound 0.0316 µM
[14] = second compound 0.1 µM, first compound 0.1 µM
[15] = second compound 0.1 µM, first compound 0.316 µM
[16] = second compound 0.1 µM, first compound 1 µM
[17] = second compound 0.1 µM, first compound 3.16 µM
[18] = second compound 0.1 µM, first compound 10 µM
[19] = second compound 0.316 µM, first compound 0.0316 µM
[20] = second compound 0.316 µM, first compound 0.1 µM
[21] = second compound 0.316 µM, first compound 0.316 µM
[22] = second compound 0.316 µM, first compound 1 µM
[23] = second compound 0.316 µM, first compound 3.16 µM
[24] = second compound 0.316 µM, first compound 10 µM
[25] = second compound 1 µM, first compound 0.0316 µM
[26] = second compound 1 µM, first compound 0.1 µM
[27] = second compound 1 µM, first compound 0.316 µM
[28] = second compound 1 µM, first compound 1 µM
[29] = second compound 1 µM, first compound 3.16 µM
[30] = second compound 1 µM, first compound 10 µM
[31] = second compound 3.16 µM, first compound 0.0316 µM
[32] = second compound 3.16 µM, first compound 0.1 µM
[33] = second compound 3.16 µM, first compound 0.316 µM
[34] = second compound 3.16 µM, first compound 1 µM
[35] = second compound 3.16 µM, first compound 3.16 µM
[36] = second compound 3.16 µM, first compound 10 µM
[37] = second compound 10 µM, first compound 0.0316 µM
[38] = second compound 10 µM, first compound 0.1 µM
[39] = second compound 10 µM, first compound 0.316 µM
[40] = second compound 10 µM, first compound 1 µM
[41] = second compound 10 µM, first compound 3.16 µM
[42] = second compound 10 µM, first compound 10 µM
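Note: spheroids exposed to compounds for seven days.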
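Throughout, for viability, T/C: 100% = DMSO vehicle control viability.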

With CC1(C)CCC(Nc2ncc(C(F)(F)F)c(-c3c[nH]c4c(P(C)(C)=O)c(C#N)ccc34)n2)CN1 (configuration not stated) + CC(Nc1ncnc2nc[nH]c12)c1cc2cccc(Cl)c2c(=O)n1-c1ccccc1 the IC50 [1] was < 0.0316 µM, the IC50 [2] was < 0.0316 µM and the IC50 [3] was < 0.0316 µM. The IC50 [4] was < 0.0316 µM, the IC50 [5] was < 0.0316 µM and the IC50 [6] was < 0.0316 µM. The viability, T/C [7] was 54.2%, the viability, T/C [8] was 46.3% and the viability, T/C [9] was 46.9%. For the same molecule, the viability, T/C [10] was 48%, the viability, T/C [11] was 50.5% and the viability, T/C [12] was 60.4%. The viability, T/C [13] was 47.3%, the viability, T/C [14] was 49.3% and the viability, T/C [15] was 47.3%. It also gave a viability, T/C [16] of 46.8%, a viability, T/C [17] of 50.3% and a viability, T/C [18] of 66.6%. It also gave a viability, T/C [19] of 49.3%, a viability, T/C [20] of 44.3% and a viability, T/C [21] of 44.3%. The viability, T/C [22] was 43.8%, the viability, T/C [23] was 51.8% and the viability, T/C [24] was 62.3%. The viability, T/C [25] was 47.4%, the viability, T/C [26] was 46.8% and the viability, T/C [27] was 45.5%. The viability, T/C [28] was 49.2%, the viability, T/C [29] was 54% and the viability, T/C [30] was 58.2%. The viability, T/C [31] was 49.2%, the viability, T/C [32] was 45.4% and the viability, T/C [33] was 42.7%. For the same molecule, the viability, T/C [34] was 45.8%, the viability, T/C [35] was 43.7% and the viability, T/C [36] was 50.3%. It also gave a viability, T/C [37] of 42.1%, a viability, T/C [38] of 36.2% and a viability, T/C [39] of 35%. The viability, T/C [40] was 34.5%, the viability, T/C [41] was 38.1% and the viability, T/C [42] was 38.1%.

CNC(=O)c1ccc(N2C(=S)N(c3ccc(C#N)c(C(F)(F)F)c3)C(=O)C2(C)C)cc1F + Cc1nc(NC(=O)N2CCCC2C(N)=O)sc1-c1ccnc(C(C)(C)C(F)(F)F)c1 was tested, and the IC50 [1] was > 10 µM, the IC50 [2] was > 10 µM and the IC50 [3] was > 10 µM. For the same molecule, the IC50 [4] was > 10 µM, the IC50 [5] was > 10 µM and the IC50 [6] was < 0.0316 µM. For the same molecule, the viability, T/C [7] was 97.5%, the viability, T/C [8] was 104% and the viability, T/C [9] was 92.3%. It also gave a viability, T/C [10] of 107%, a viability, T/C [11] of 119% and a viability, T/C [12] of 88.4%. It also gave a viability, T/C [13] of 116%, a viability, T/C [14] of 101% and a viability, T/C [15] of 99.5%. For the same molecule, the viability, T/C [16] was 105%, the viability, T/C [17] was 111% and the viability, T/C [18] was 114%. The viability, T/C [19] was 104%, the viability, T/C [20] was 104% and the viability, T/C [21] was 107%. The viability, T/C [22] was 102%, the viability, T/C [23] was 117% and the viability, T/C [24] was 111%. The viability, T/C [25] was 94.3%, the viability, T/C [26] was 89.4% and the viability, T/C [27] was 96.2%. It also gave a viability, T/C [28] of 96%, a viability, T/C [29] of 90.3% and a viability, T/C [30] of 90.4%. It also gave a viability, T/C [31] of 67.4%, a viability, T/C [32] of 64.7% and a viability, T/C [33] of 65.9%. For the same molecule, the viability, T/C [34] was 64.9%, the viability, T/C [35] was 61.5% and the viability, T/C [36] was 54.5%. For the same molecule, the viability, T/C [37] was 36%, the viability, T/C [38] was 39.3% and the viability, T/C [39] was 38.5%. It also gave a viability, T/C [40] of 36.8%, a viability, T/C [41] of 35.5% and a viability, T/C [42] of 33%.

For CCN1CCN(Cc2ccc(Nc3ncc(F)c(-c4cc(F)c5nc(C)n(C(C)C)c5c4)n3)nc2)CC1, the viability, T/C (compound 0.01 µM) was 99.5% [middle of 4 runs], the viability, T/C (compound 0.0316 µM) was 103% [middle of 4 runs] and the viability, T/C (compound 0.1 µM) was 102% [middle of 4 runs]. The viability, T/C (compound 0.316 µM) was 120% [middle of 4 runs], the viability, T/C (compound 1 µM) was 122% [middle of 4 runs] and the IC50 (curve of compound) was > 1 µM.

CCCS(=O)(=O)Nc1ccc(F)c(C(=O)c2c[nH]c3ncc(-c4ccc(Cl)cc4)cc23)c1F + CC(Nc1ncnc2nc[nH]c12)c1cc2cccc(Cl)c2c(=O)n1-c1ccccc1 showed an IC50 [1] of 8.61 µM, an IC50 [2] of 6.79 µM and an IC50 [3] of 6.52 µM. For the same molecule, the IC50 [4] was 7.03 µM, the IC50 [5] was 6.39 µM and the IC50 [6] was 4.69 µM. It also gave a viability, T/C [7] of 103%, a viability, T/C [8] of 103% and a viability, T/C [9] of 108%. For the same molecule, the viability, T/C [10] was 105%, the viability, T/C [11] was 96.5% and the viability, T/C [12] was 43%. The viability, T/C [13] was 112%, the viability, T/C [14] was 103% and the viability, T/C [15] was 90.3%. For the same molecule, the viability, T/C [16] was 90.9%, the viability, T/C [17] was 92.8% and the viability, T/C [18] was 28.1%. It also gave a viability, T/C [19] of 92.6%, a viability, T/C [20] of 96.5% and a viability, T/C [21] of 101%. The viability, T/C [22] was 104%, the viability, T/C [23] was 93.9% and the viability, T/C [24] was 23.8%. For the same molecule, the viability, T/C [25] was 112%, the viability, T/C [26] was 99.6% and the viability, T/C [27] was 98.8%. The viability, T/C [28] was 116%, the viability, T/C [29] was 98.8% and the viability, T/C [30] was 27.8%. The viability, T/C [31] was 107%, the viability, T/C [32] was 101% and the viability, T/C [33] was 118%. For the same molecule, the viability, T/C [34] was 106%, the viability, T/C [35] was 90.1% and the viability, T/C [36] was 24.5%. It also gave a viability, T/C [37] of 95%, a viability, T/C [38] of 101% and a viability, T/C [39] of 91.2%. The viability, T/C [40] was 83.8%, the viability, T/C [41] was 69.2% and the viability, T/C [42] was 16.6%.
